Data from patent US7795236B2, “Purine nucleoside derivative modified in 8-position and medical use thereof” (Kissei Pharmaceutical Co., Ltd., priority 2005, dated 2010).

Molecular target: T1, human CNT2 (Homo sapiens, UniProt O43868)
T1 construct: expressed in transfected cells; host or cells: COS-7 cells (RIKEN CELL BANK RCB0539), transient lipofection of a pCI-neo plasmid
T1 sequence (O43868 1-658 P22L/S45C/I160M): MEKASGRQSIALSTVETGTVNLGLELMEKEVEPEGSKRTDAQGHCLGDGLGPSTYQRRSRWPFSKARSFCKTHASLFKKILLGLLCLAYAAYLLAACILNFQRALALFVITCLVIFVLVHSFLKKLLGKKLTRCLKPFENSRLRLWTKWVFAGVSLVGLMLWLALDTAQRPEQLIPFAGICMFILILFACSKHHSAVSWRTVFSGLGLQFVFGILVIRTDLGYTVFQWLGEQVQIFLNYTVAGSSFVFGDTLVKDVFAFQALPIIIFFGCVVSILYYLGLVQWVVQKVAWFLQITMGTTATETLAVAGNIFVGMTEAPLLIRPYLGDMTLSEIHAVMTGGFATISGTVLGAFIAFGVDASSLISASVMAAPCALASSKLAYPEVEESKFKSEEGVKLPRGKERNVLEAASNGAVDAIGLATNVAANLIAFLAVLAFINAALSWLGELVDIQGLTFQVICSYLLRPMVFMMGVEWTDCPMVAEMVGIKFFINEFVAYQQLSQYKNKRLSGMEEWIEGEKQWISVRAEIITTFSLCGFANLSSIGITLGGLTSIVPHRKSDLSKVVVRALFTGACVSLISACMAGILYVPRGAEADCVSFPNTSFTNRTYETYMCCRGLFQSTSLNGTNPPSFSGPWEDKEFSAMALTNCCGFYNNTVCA
Assay: Inhibitory activity against uptake of adenosine through human CNT2
Type: cell-based
Conditions: 14C-labeled adenosine 10 μM, COS-7 cells transiently expressing human CNT2, 30 minutes at 37° C.
Experimental: Expression plasmid of human CNT2 was transfected into COS-7 cells (RIKEN CELL BANK RCB0539) by lipofection method. LIPOFECTAMINE 2000 (Invitrogen) was used as a lipofection reagent. COS-7 cells were diluted in D-MEM (Invitrogen) containing 10% fetal calf serum (Sanko Junyaku) at 5×10^5/1 mL, and seeded into collagen-coated 96-well plates (IWAKI) at 100 μL/well and cultured at 37° C. for 2 hours with 5% CO2 condition. For each well, 0.6 μL of LIPOFECTAMINE 2000 (Invitrogen) was diluted in 25 μL of OPTI-MEM (Invitrogen), and incubated for 7 minutes at room temperature (hereinafter referred to as Lipo 2000-OPTI). […]
An Uptake buffer was prepared by addition of a mixture of non-radioisotope labeled (Sigma) and ^14C-labeled (Amersham Biosciences) adenosine at the final concentration of 10 μM into a buffer, pH 7.4, containing 140 mM sodium chloride, 2 mM potassium chloride, 1 mM calcium chloride, 1 mM magnesium chloride, 10 mM HEPES 2-[4-(2-hydroxyethyl)-1-piperazinyl]ethane sulfonic acid, 5 mM tris(hydroxy-methyl)aminomethane and 5 mM glucose. […] After mixing with 150 μL of MicroScint-40 (Perkin Elmer), radioactivity was measured by means of scintillation counter (Perkin Elmer). One hundred % was set to the difference between the uptake in the control group and the basal uptake, and the uptake of adenosine at each test compound concentration was calculated. […]

Row | Structure (SMILES) | IC50 [nM]
1 | Nc1ncnc2c1nc(NCc1ccc(-c3ccccc3)c(OCCCCO)c1)n2[C@@H]1O[C@H](CO)[C@@H](O)[C@H]1O [Example 82] | 297

Molecular target: T2, human CNT2 (Homo sapiens, UniProt O43868, I160M/P22L/S45C)
T2 construct: expressed in transfected cells; host or cells: COS-7 cells (RIKEN CELL BANK RCB0539), transient lipofection of a pCI-neo plasmid
T2 sequence (O43868 1-658 P22L/S45C/I160M): T1 sequence (O43868 1-658 P22L/S45C/I160M)
Assay: Inhibitory activity against uptake of inosine through human CNT2
Type: cell-based
Conditions: 14C-labeled inosine 10 μM, COS-7 cells transiently expressing human CNT2, 30 minutes at 37° C.
Experimental: Expression plasmid of human CNT2 was transfected into COS-7 cells (RIKEN CELL BANK RCB0539) by lipofection method. LIPOFECTAMINE 2000 (Invitrogen) was used as a lipofection reagent. COS-7 cells were diluted in D-MEM (Invitrogen) containing 10% fetal calf serum (Sanko Junyaku) at 5×10^5/1 mL, and seeded into collagen-coated 96-well plates (IWAKI) at 100 μL/well and cultured at 37° C. for 2 hours with 5% CO2 condition. For each well, 0.6 μL of LIPOFECTAMINE 2000 (Invitrogen) was diluted in 25 μL of OPTI-MEM (Invitrogen), and incubated for 7 minutes at room temperature (hereinafter referred to as Lipo 2000-OPTI). For each well, 0.3 μg of plasmid was diluted in 25 μL of OPTI-MEM (Invitrogen), and the solution was added to the Lipo 2000-OPTI and mixed gently and incubated for 30 minutes at room temperature, and was transferred 50 μL for each well to culture medium. The cells were incubated at 37° C. with 5% CO2 condition for 2 days, and used for the uptake assays.
An Uptake buffer was prepared by addition of a mixture of non-radioisotope labeled (WAKO) and ^14C-labeled (Muromachi Yakuhin) inosine at the final concentration of 10 μM into a buffer, pH7.4, containing 140 mM sodium chloride, 2 mM potassium chloride, 1 mM calcium chloride, 1 mM magnesium chloride, 10 mM HEPES 2-[4-(2-hydroxyethyl)-1-piperazinyl]ethane sulfonic acid, 5 mM tris(hydroxymethyl)aminomethane and 5 mM glucose. For measurement of basal uptake, Basal uptake measurement buffer, which contained 140 mM choline chloride instead of sodium chloride was prepared. In uptake assays, NBMPR was added to Uptake buffer and Basal uptake measurement buffer at the final concentration of […]. In the case of measurement of inhibitory activity of test compounds, test compounds were dissolved in dimethyl sulfoxide, and then appropriately diluted with Uptake buffer as to prepare Measurement buffers. After removing culture medium of human CNT2 transiently expressing cells, Pretreatment buffer (Basal uptake measurement buffer without inosine and glucose) was added to wells at 200 μL/well and incubated at 37° C. for 10 minutes. After repeating the same step again, Pretreatment buffer was removed and Measurement buffers and Basal uptake measurement buffer were added at 75 μL/well and incubated at 37° C. After incubation for 30 minutes, Measurement buffers and Basal uptake measurement buffer were removed, and the cells were washed with Washing buffer (Basal uptake measurement buffer with non-radioisotope labeled inosine at 10 μM) at 200 μL/well twice. The cells were solubilized with 0.2 mol/L sodium hydroxide at 75 μL/well, and the cell lysates were transferred into PicoPlates (Perkin Elmer). After mixing with 150 μL of MicroScint-40 (Perkin Elmer), radioactivity was measured by means of scintillation counter (Perkin Elmer). One hundred % was set to the difference between the uptake in the control group and the basal uptake, and the uptake of inosine at each test compound concentration was calculated. The test compound concentration inhibiting 50% uptake of inosine (IC50 value) was calculated using logit plot.

Row | Structure (SMILES) | IC50 [nM]
2 | C[N+](C)(C)CCCOc1cccc(-c2ccc(CNc3nc4c(N)ncnc4n3[C@@H]3O[C@H](CO)[C@@H](O)[C@H]3O)cc2)c1 [Example 167] | 412
3 | NC(=O)[C@H](Cc1ccc(O)cc1)NCCCOc1cccc(-c2ccc(CNc3nc4c(N)ncnc4n3[C@@H]3O[C@H](CO)[C@@H](O)[C@H]3O)cc2)c1 [Example 164] | 85
4 | CCCNCCCOc1cc(CNc2nc3c(N)ncnc3n2[C@@H]2O[C@H](CO)[C@@H](O)[C@H]2O)ccc1-c1ccccc1 [Example 147] | 321
5 | CN(C)CCCOc1cccc(-c2ccc(CNc3nc4c(N)ncnc4n3[C@@H]3O[C@H](CO)[C@@H](O)[C@H]3O)cc2)c1 [Example 117] | 378
6 | CCN(CCO)CCCOc1cc(CNc2nc3c(N)ncnc3n2[C@@H]2O[C@H](CO)[C@@H](O)[C@H]2O)ccc1-c1ccccc1 [Example 130] | 223
7 | Nc1ncnc2c1nc(NCc1ccc(-c3ccsc3)cc1)n2[C@@H]1O[C@H](CO)[C@@H](O)[C@H]1O [Example 132] | 649
8 | NCCCOc1cc(CNc2nc3c(N)ncnc3n2[C@H]2C[C@H](O)[C@@H](CO)O2)ccc1-c1ccccc1 [Example 155] | 266
9 | N=C(N)NCCCOc1cccc(-c2ccc(CNc3nc4c(N)ncnc4n3[C@@H]3O[C@H](CO)[C@@H](O)[C@H]3O)cc2)c1 [Example 157, 8-[3′-(3-Guanidinopropoxy)biphenyl-4-ylmethylamino]-adenosine] | 234
10 | CN(C)CCCOc1cccc(-c2ccc(CCNc3nc4c(N)ncnc4n3[C@@H]3O[C@H](CO)[C@@H](O)[C@H]3O)cc2)c1 [Example 171] | 2430
11 | Nc1ncnc2c1nc(NCc1ccc(-c3cccc(OCCCN4CCCCC4)c3)cc1)n2[C@@H]1O[C@H](CO)[C@@H](O)[C@H]1O [Example 125] | 528
12 | Nc1ncnc2c1nc(NCc1ccc(-c3ccccc3)c(OCCCN3CCCC3)c1)n2[C@@H]1O[C@H](CO)[C@@H](O)[C@H]1O [Example 120] | 444
13 | CCN(CC)CCCOc1cc(CNc2nc3c(N)ncnc3n2[C@@H]2O[C@H](CO)[C@@H](O)[C@H]2O)ccc1-c1ccccc1 [Example 115, 8-[2-(3-Diethylaminopropoxy)biphenyl-4-ylmethylamino]-adenosine] | 378
14 | NCCCOc1cc(CNc2nc3c(N)ncnc3n2[C@@H]2O[C@H](CO)[C@@H](O)[C@@H]2O)ccc1-c1ccccc1 [Example 153] | 1610
15 | NCCCOc1ccc(-c2cccc(CNc3nc4c(N)ncnc4n3[C@@H]3O[C@H](CO)[C@@H](O)[C@H]3O)c2)cc1 [Example 149] | 176
16 | NCCCOc1cccc(-c2ccc(CNc3nc4c(N)ncnc4n3[C@@H]3O[C@H](CO)[C@@H](O)[C@@H]3O)cc2)c1 [Example 154] | 7150

Tested on: not listed separately
Assay: Effects of CNT inhibitor on plasma uric acid level (purine load test in rats)
Type: in vivo
Conditions: Male SD-IGS rats, oxonic acid 100 mg/kg s.c., purine mix 50 mg/kg and test compound 50 mg/kg orally, blood after 1 hour; control group = 100%
Experimental: Male SD-IGS rats (5 weeks old) which were fasted overnight, were subcutaneously treated with oxonic acid (Aldrich; 100 mg/kg), and after 1 hour, purine mix (Adenosine: Inosine: Guanosine=1:1:1 (Adenosine (Sigma), Inosine (WAKO), Guanosine (ICN); 50 mg/kg) and test compounds (50 mg/kg) were orally administrated simultaneously. A control group was treated with oxonic acid and the purine mix, and a group administrated only oxonic acid represented endogenous plasma uric acid value. After 1 hour, blood was collected from the abdominal aorta under ether anesthesia, and the plasma was collected with Venoject II vacuum blood collecting tube (Terumo, VP-FH052). According to the method described in Journal of Chromatography B, Vol. 744 (2000), pp. 129-138, plasma uric acid level was measured by using HPLC method mentioned below. The difference between plasmauric acid value in each study group and endogenous plasma uric acid value was calculated on the basis of 100% in the control group.
Theophylline (10 μg) as an internal standard substance was added to 0.1 mL of plasma collected with the above method, and then the samples were deproteinized with 1 mL of methanol. After the samples were centrifuged, the methanol layers were evaporated to dryness under a stream of nitrogen. […] Plasma uric acid concentration was determined by HPLC method according to the condition described below. […]

Row | Structure (SMILES) | Percentage of increment of plasma uric acid level (%)
17 | Nc1ncnc2c1nc(NCc1ccc(-c3ccccc3)c(OCCCCO)c1)n2[C@@H]1O[C@H](CO)[C@@H](O)[C@H]1O [Example 82] | 44.1 (p < 0.05) %

Molecular target: T3, ENT2 (Homo sapiens, UniProt Q14542)
T3 sequence (Q14542 1-456): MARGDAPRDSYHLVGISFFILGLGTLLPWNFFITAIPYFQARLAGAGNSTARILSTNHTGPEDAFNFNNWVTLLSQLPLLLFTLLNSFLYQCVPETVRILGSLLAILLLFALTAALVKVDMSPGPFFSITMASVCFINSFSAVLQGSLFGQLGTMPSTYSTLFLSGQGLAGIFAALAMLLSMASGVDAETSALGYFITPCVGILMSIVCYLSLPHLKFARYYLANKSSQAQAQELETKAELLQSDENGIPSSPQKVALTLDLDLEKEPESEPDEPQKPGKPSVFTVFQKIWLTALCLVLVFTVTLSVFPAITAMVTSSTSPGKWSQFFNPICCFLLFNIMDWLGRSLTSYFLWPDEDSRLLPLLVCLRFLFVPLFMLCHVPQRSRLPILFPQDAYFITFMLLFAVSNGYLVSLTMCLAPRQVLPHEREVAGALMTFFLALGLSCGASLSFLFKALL
Assay: not given
Conditions: ENT2 inhibited only by high concentration of NBMPR; cited from earlier work

Row | Structure (SMILES) | IC50 [nM]
18 | O=[N+]([O-])c1ccc(CSc2ncnc3c2ncn3C2OC(CO)C(O)C2O)cc1 (stereo not shown) [NBMPR, nitrobenzylthioinosine] | > 1000

Tested on: CNT
Assay: not given
Conditions: Non-patent Reference 14; cited from earlier work

Row | Structure (SMILES) | inhibitory activity against CNT
19 | Nc1ncnc2c1nc(Br)n2[C@@H]1O[C@H](CO)[C@@H](O)[C@H]1O [8-bromoadenosine] | weak inhibitory activity
